Like-named read-outs stand apart in the source and are kept apart here. Blank lines part the entries; values can stand above or below the compound they belong to.
Columns and labels:
[1] = Concentration and elimination of ADP and its metabolites in liver, kidney, muscle, fat/skin after oral ^3H-ADP for 7 d; type: in vivo, rats; details: for half-life: po; for concentration at 0.25 d / concentration at 1 d / concentration at 3 d / concentration at 7 d / concentration at 14 d: oral
Experimental: (§1) A total of 36 animals from each species (swine n = 24) were randomly assigned to six equal treatment groups and administered a single daily dose of ^3 H-ADP at 5 mg/kg b. w. (0.1 Ci/g) through oral gavage for 7 consecutive days. All the animals were housed on the basis of their group in the cages or aquaria throughout the whole study period. A group of animals was slaughtered through exsanguination under diethyl ether inhalation of anesthesia in the period of 6 h, 1, 3, 7, 14, and 21 d after the administration. The blood samples were immediately collected into the heparinized tubes and was centrifuged at 1920 × g at 4 °C for 10 min to obtain the plasma. The tissues from the heart, liver, spleen, lung, kidney, craw (broilers), stomach, intestine, fat, skin, muscle, thymus, pancreas, bile, bladder, hair (scale for carp), genital gland, adrenal glands, swim bladder (carp), brain, lymph, and bursa (broilers) were carefully excised and collected. The tissues were thoroughly rinsed with the deionized water to remove the residuary blood, blotted to dryness, and finally to perform the homogenization. In order to avoid cross-contamination the dissecting instruments were washed during the tissue procurements. The blank tissues were collected in order to provide control matrices. The total radioactivity levels in each sample were determined through LSC. The samples extracted from the plasma, bile, and tissues of the liver, kidney, muscle, and fat/skin were analyzed through LC/MS-IT-TOF and v. ARC radiometric detection for metabolite profiling. The blank samples were used as control to determine the background radioactivity or the endogenous nondrug-related ions observed within respective matrices or their extracts.
(§2) The feces and tissues (2 g) were diluted with a mixture of methanol and chloroform (1:3, v:v; 2 mL/g homogenate). This procedure was carried out in a fume hood for the safety aspects. The pH value was adjusted to 9.0 with NH4OH. The mixture was vortexed and sonicated for 5 min and 10 min, respectively, and finally the samples were centrifuged at 7690 × g for 10 min. The supernatant was aspirated and then transferred into a new centrifuge tube. The obtained pellet was again subjected to the same process of vortex, ultrasonication, extraction, and centrifugation. The combined supernatant was concentrated under a stream of nitrogen in a water bath at 40 °C. The residue was reconstituted with 0.3 mL of methanol–water (1:9, v:v) before the injection into the LC-v. ARC/MS-IT-TOF system for analysis.
(§3) ADP and its metabolites in the prepared samples were determined with a v. ARC radiometric detector and a hybrid IT/TOF mass spectrometer connected to the HPLC system (Shimadzu Corp., Kyoto, Japan). The LC system was equipped with a solvent delivery pump (LC-20AD), an auto-sampler (SIL-20AC), a degasser (DGU-20 A 3), a photodiode array detector (SPD-M20A), a communication base module (CBM-20 A), and a column oven (CTO-20AC). The chromatographic separation was achieved by using an Agilent extend-C18 column (2.1 mm × 150 mm, 5 μm) with a gradient mobile phase of A (0.01% ammonia and 5 mM ammonium acetate in water) and B (methanol) at a flow rate of 0.2 mL/min. The column temperature was maintained at 35 °C. Various HPLC methods were performed because of the large number of different metabolites to be analyzed. For the porcine sample, method 1 started at 5% B and increased to 20% B over 35 min, then to 55% B by 60 min, followed by re-equilibration for another 10 min. For the remaining samples, method 2 started at 10% B and increased to 60% B over 30 min, subsequently was maintained at 60% B for an additional 10 min, and then changed to 90% B over 2 min and maintained for 2 min. Afterwards, a re-equilibration step (decreased to 10% B over 1 min and maintained at 10% B for additional 9 min) was followed. For each matrix, more than 98% of the radioactivity injected into the column was eluted during the running time of the gradient program. […]

[2] = as above; type: in vivo, broilers; details: for concentration at 0.25 d / concentration at 1 d / concentration at 3 d / concentration at 7 d / concentration at 14 d: oral; for half-life: po
Experimental: as §1, §2, §3

[3] = rat kidney, after 5 mg/kg b. w. for 7 days, read-out: t1/2 of the individual compound (converted)
[4] = rat liver, after 5 mg/kg b. w. for 7 days, read-out: t1/2 of the individual compound (converted)
[5] = rat, tissues (liver, kidney, muscle, fat/skin), 5 mg/kg, rats tissues, read-out: t1/2 of the individual compound, range over tissues
[6] = broiler chicken, kidney, 5 mg/kg b.w.
[7] = broiler chicken, muscle, 5 mg/kg b.w.
[8] = broilers, muscle, 5 mg/kg b. w.
[9] = broiler kidney, after 5 mg/kg b. w. for 7 days, read-out: t1/2 of the individual compound (converted)
[10] = broiler liver, after 5 mg/kg b. w. for 7 days, read-out: t1/2 of the individual compound (converted)
[11] = tissues (liver, kidney, muscle, fat/skin), 5 mg/kg, broilers tissues, read-out: t1/2 of the individual compound, range over tissues

half-life ([1]; rat fat, after 5 mg/kg b. w. for 7 days, read-out: t1/2 of the individual compound (converted)): 62.2 h
half-life [1, 3]: 76.8 h
half-life [1, 4]: 100 h
half-life ([1]; rat muscle, after 5 mg/kg b. w. for 7 days, read-out: t1/2 of the individual compound (converted)): 70.8 h
concentration at 0.25 d ([1]; rat, fat, 5 mg/kg b. w.): 290 ± 100 ng/g
concentration at 1 d ([1]; rat, fat, 5 mg/kg b. w.): 150 ± 30 ng/g
concentration at 3 d ([1]; rat, fat, 5 mg/kg b. w.): 80 ± 10 ng/g
concentration at 7 d ([1]; rat, fat, 5 mg/kg b. w.): 30 ng/g
concentration at 0.25 d ([1]; rat, kidney, 5 mg/kg b.w.): 3800 ± 1550 ng/g
concentration at 1 d ([1]; rat, kidney, 5 mg/kg b.w.): 1130 ± 430 ng/g
concentration at 3 d ([1]; rat, kidney, 5 mg/kg b.w.): 590 ± 110 ng/g
concentration at 7 d ([1]; rat, kidney, 5 mg/kg b.w.): 350 ± 80 ng/g
concentration at 14 d ([1]; rat, kidney, 5 mg/kg b.w.): 60 ± 10 ng/g
concentration at 0.25 d ([1]; rat, liver, 5 mg/kg b. w.): 6140 ± 1890 ng/g
concentration at 1 d ([1]; rat, liver, 5 mg/kg b. w.): 2830 ± 520 ng/g
concentration at 3 d ([1]; rat, liver, 5 mg/kg b. w.): 1020 ± 270 ng/g
concentration at 7 d ([1]; rat, liver, 5 mg/kg b. w.): 560 ± 120 ng/g
concentration at 14 d ([1]; rat, liver, 5 mg/kg b. w.): 170 ± 30 ng/g
concentration at 0.25 d ([1]; rat, muscle, 5 mg/kg b.w.): 1020 ± 480 ng/g
concentration at 1 d ([1]; rat, muscle, 5 mg/kg b.w.): 700 ± 210 ng/g
concentration at 3 d ([1]; rat, muscle, 5 mg/kg b.w.): 380 ± 90 ng/g
concentration at 7 d ([1]; rat, muscle, 5 mg/kg b.w.): 170 ± 40 ng/g
half-life [1, 5]: 62.2 to 100 h
share of the sample radioactivity in the detected tissues ([1]; rats liver, kidney, muscle, fat, over the sampling times): more than 42%
concentration at 0.25 d [2, 6]: 15400 ± 2120 ng/g
concentration at 1 d [2, 6]: 7240 ± 1020 ng/g
concentration at 3 d [2, 6]: 1150 ± 440 ng/g
concentration at 7 d [2, 6]: 170 ± 20 ng/g
concentration at 14 d [2, 6]: 40 ± 10 ng/g
concentration at 0.25 d [2, 7]: 530 ± 220 ng/g
share of the sample radioactivity in the detected tissues ([2]; broilers liver, kidney, muscle, fat, over the sampling times): more than 42%
concentration at 0.25 d ([2]; broilers, fat, 5 mg/kg b. w.): 780 ± 240 ng/g
concentration at 1 d ([2]; broilers, fat, 5 mg/kg b. w.): 180 ± 60 ng/g
concentration at 3 d ([2]; broilers, fat, 5 mg/kg b. w.): 140 ± 20 ng/g
concentration at 7 d ([2]; broilers, fat, 5 mg/kg b. w.): 60 ± 10 ng/g
concentration at 0.25 d ([2]; broilers, liver, 5 mg/kg b. w.): 8040 ± 1400 ng/g
concentration at 1 d ([2]; broilers, liver, 5 mg/kg b. w.): 1860 ± 580 ng/g
concentration at 3 d ([2]; broilers, liver, 5 mg/kg b. w.): 1150 ± 440 ng/g
concentration at 7 d ([2]; broilers, liver, 5 mg/kg b. w.): 580 ± 80 ng/g
concentration at 14 d ([2]; broilers, liver, 5 mg/kg b. w.): 130 ± 50 ng/g
concentration at 1 d [2, 8]: 330 ± 100 ng/g
concentration at 3 d [2, 8]: 220 ± 30 ng/g
concentration at 7 d [2, 8]: 30 ng/g
half-life ([2]; broiler fat, after 5 mg/kg b. w. for 7 days, read-out: t1/2 of the individual compound (converted)): 71.5 h
half-life [2, 9]: 55.4 h
half-life [2, 10]: 81.6 h
half-life ([2]; broiler muscle, after 5 mg/kg b. w. for 7 days, read-out: t1/2 of the individual compound (converted)): 40.1 h
half-life [2, 11]: 40.1 to 81.6 h
Structure (SMILES): COc1cc(Cc2cnc(N)nc2N)cc(OC)c1N(C)C [A0, 2,4-Diamino-5-[4-(dimethylamino)-3,5-dimethoxybenzyl] pyrimidine]

half-life [1, 3]: 50.6 h
half-life [1, 4]: 64.6 h
concentration at 0.25 d ([1]; rat, fat, 5 mg/kg b. w.): 70 ± 20 ng/g
concentration at 0.25 d ([1]; rat, kidney, 5 mg/kg b.w.): 2650 ± 970 ng/g
concentration at 1 d ([1]; rat, kidney, 5 mg/kg b.w.): 320 ± 120 ng/g
concentration at 3 d ([1]; rat, kidney, 5 mg/kg b.w.): 120 ± 20 ng/g
concentration at 7 d ([1]; rat, kidney, 5 mg/kg b.w.): 40 ± 10 ng/g
concentration at 0.25 d ([1]; rat, liver, 5 mg/kg b. w.): 1940 ± 580 ng/g
concentration at 1 d ([1]; rat, liver, 5 mg/kg b. w.): 390 ± 90 ng/g
concentration at 3 d ([1]; rat, liver, 5 mg/kg b. w.): 180 ± 40 ng/g
concentration at 7 d ([1]; rat, liver, 5 mg/kg b. w.): 80 ± 10 ng/g
concentration at 0.25 d ([1]; rat, muscle, 5 mg/kg b.w.): 250 ± 100 ng/g
concentration at 1 d ([1]; rat, muscle, 5 mg/kg b.w.): 140 ± 30 ng/g
half-life [1, 5]: 50.6 to 64.6 h
concentration at 0.25 d [2, 6]: 6060 ± 970 ng/g
concentration at 1 d [2, 6]: 2920 ± 530 ng/g
concentration at 3 d [2, 6]: 370 ± 100 ng/g
concentration at 0.25 d [2, 7]: 200 ± 80 ng/g
concentration at 0.25 d ([2]; broilers, fat, 5 mg/kg b. w.): 300 ± 100 ng/g
concentration at 1 d ([2]; broilers, fat, 5 mg/kg b. w.): 60 ± 20 ng/g
concentration at 0.25 d ([2]; broilers, liver, 5 mg/kg b. w.): 3090 ± 680 ng/g
concentration at 1 d ([2]; broilers, liver, 5 mg/kg b. w.): 740 ± 120 ng/g
concentration at 3 d ([2]; broilers, liver, 5 mg/kg b. w.): 370 ± 100 ng/g
concentration at 1 d [2, 8]: 90 ± 20 ng/g
half-life [2, 9]: 16.3 h
half-life [2, 10]: 25.2 h
half-life [2, 11]: 16.3 to 25.2 h
Structure (SMILES): CNc1c(OC)cc(Cc2cnc(N)nc2N)cc1OC [A1, N-monodesmethyl-ADP]

half-life [1, 3]: 16.8 h
half-life [1, 4]: 38.6 h
concentration at 0.25 d ([1]; rat, kidney, 5 mg/kg b.w.): 370 ± 130 ng/g
concentration at 1 d ([1]; rat, kidney, 5 mg/kg b.w.): 120 ± 30 ng/g
concentration at 3 d ([1]; rat, kidney, 5 mg/kg b.w.): 20 ng/g
concentration at 0.25 d ([1]; rat, liver, 5 mg/kg b. w.): 230 ± 60 ng/g
concentration at 1 d ([1]; rat, liver, 5 mg/kg b. w.): 120 ± 20 ng/g
concentration at 3 d ([1]; rat, liver, 5 mg/kg b. w.): 60 ± 20 ng/g
concentration at 0.25 d ([1]; rat, muscle, 5 mg/kg b.w.): 40 ± 10 ng/g
concentration at 0.25 d [2, 6]: 1200 ± 80 ng/g
concentration at 1 d [2, 6]: 550 ± 140 ng/g
concentration at 0.25 d [2, 7]: 60 ± 20 ng/g
concentration at 0.25 d ([2]; broilers, fat, 5 mg/kg b. w.): 30 ± 10 ng/g
concentration at 0.25 d ([2]; broilers, liver, 5 mg/kg b. w.): 380 ± 50 ng/g
concentration at 1 d ([2]; broilers, liver, 5 mg/kg b. w.): 190 ± 50 ng/g
concentration at 1 d [2, 8]: 10 ng/g
Structure (SMILES): COc1cc(Cc2cnc(N)nc2N)cc(OC)c1N [A2, N-didesmethyl-ADP]

Source: paper PMC4738305, “Metabolism and Disposition of Aditoprim in Swine, Broilers, Carp and Rats” (Scientific Reports, 2016)
